Measurements as given in ChEMBL document CHEMBL3046543, “Larvicidal and adulticidal activity of alkylphthalide derivatives from rhizome of Cnidium officinale against Drosophila melanogaster” (J Agric Food Chem, 2005).

Assays:
Type in all cases: functional
Drosophila melanogaster [1] = test: Relative toxicity, LD50 for rotenone Drosophila melanogaster adulticidal activity to LD50 for compound Drosophila melanogaster adulticidal activity
Drosophila melanogaster [2] = test: Relative toxicity, LC50 for rotenone Drosophila melanogaster larvicidal activity to LC50 for compound Drosophila melanogaster larvicidal activity
Drosophila melanogaster [3] = test: Insecticidal activity against 5 to 7 days old adult Drosophila melanogaster assessed as mortality measured as inability to move compound treated in diet at 25 degC and >90% RH treated for 8 days
Drosophila melanogaster [4] = test: Insecticidal activity against Drosophila melanogaster larvae assessed as mortality compound treated in diet at 25 degC and >90% RH treated for 8 days; settings: feed or water, 192 h

SMILES	Ratio (Drosophila melanogaster [1])	RatioLC50 (Drosophila melanogaster [2])	LD50 (Drosophila melanogaster [3]) [µg]	LC50 (Drosophila melanogaster [4]) [mM]
CCCC[C@@H]1OC(=O)C2=CCCC[C@H]21 [NEOCNIDILIDE]	0.34	0.002	10.82	9.9
CCC/C=C1\OC(=O)C2=C1CCC=C2 [LIGUSTILIDE]	<0.07	0.009	>50	2.54
C=C(C)[C@H]1Cc2c(ccc3c2O[C@@H]2COc4cc(OC)c(OC)cc4[C@@H]2C3=O)O1 [ROTENONE]	1	1	3.68	0.02
CCCC[C@@H]1OC(=O)[C@@H]2C=CCC[C@H]12 [CNIDILIDE]	0.4	<0.001	9.17	> 16
CCCC[C@@H]1OC(=O)c2ccccc21 [(3S)-BUTYLPHTHALIDE]	0.62	0.004	5.93	4.99
